No end group written: not given here.
Legend:
Type in all cases: cell-based
[1] = system: E. coli; experiment: Cell penetration activity by confocal microscopy (FITC-labeled peptides); conditions: FITC-labeled peptide applied to fixed E. coli for 5 minutes
Procedure: FIGS. 1A˜1D are the results of analyzing the cell penetration activity of the new antimicrobial peptides by confocal microscopy. To emphasize the location of the antimicrobial peptides, color was eliminated from the images. The white area in FIGS. 1A˜1D is the antimicrobial peptide penetrated within the cell.
The cell penetration activity of the peptides prepared in Example 1 was observed by confocal microscopy. After inoculating and culturing E. coli in trypticase soy broth at 37° C. overnight, they were inoculated in new media and cultured for 2 hours to exponential growth phase. After washing E. coli with 10 mM NAPB (sodium phosphate buffer) and diluting to 10^5 CFU/ml, the above diluted E. coli was fixed for 30 min on glass-slides coated with poly-L-lysine. The N-terminus of the peptides prepared in Example 1 was labeled with FITC (fluoresceinisothicyanate), and the labeled peptides were applied to E. coli fixed on the glass-slides for 5 minutes. The glass-slides were washed with 10 mM NAPB and observed them by confocal microscopy.

[2] = system: human red blood cells (hRBC); experiment: Hemolytic activity on human red blood cells
Procedure: After separating the precipitated human red blood cells (hRBC) from 3 ml of human blood, they were washed with PBS (phosphate buffered saline) and diluted to make the total volume of 20 ml. In 190 μl of the prepared hRBC solution, 10 μl of each peptide sample (4 μg/μl ) prepared in Example 1 was added to make the final concentration of 200 μg/ml, reacted for 1 h at 37° C. and centrifuged for 5 min at 4000 rpm. […] The absorbance of the sample treated with 0.2% Triton X-100 was set to represent 100% hemolysis and the percent (%) hemolysis of each sample was relatively calculated from each measured absorbance, as shown in Table 3.

[3] = system: Saccharomyces cerevisiae (ATCC 44774); conditions: ATCC 44774, 12 h
Text: (§1) The microorganisms used in the present invention include Gram-positive bacteria such as Bacillus subtilis (ATCC 62037), Staphylococcus aureus (ATCC 15752) and Streptococcus mutans (ATCC 25175), Gram-negative bacteria such as Escherichia coli (ATCC 27325), Salmonella enteritidis (ATCC 15277) and Pseudomonas putida (ATCC 17426) and fungi such as Candida albicans (ATCC 10231), Saccharomyces cerevisiae (ATCC 44774) and Cryptococcus neoformans (ATCC 34881), obtained from American Type Culture Collection (ATCC).
(§2) The antimicrobial activity of the peptides prepared in Example 1 was determined against microorganisms by 96-well microdilution minimal inhibitory concentration assay. After overnight culturing the bacteria and fungi in trypticase soy broth (TSB) and Saboraud (SAB) at 37° C. and 30° C., respectively, they were inoculated in new media and cultured for 2 hours to exponential growth phase. After diluting the microorganisms to 10^5 per 1 ml, 190 μl was inoculated in each 96-well plate, and 10 μl of serially diluted peptides were added in each well.

[4] = system: Bacillus subtilis (ATCC 62037); conditions: ATCC 62037, 12 h
Text: as §1, §2

[5] = system: Salmonella enteritidis (ATCC 15277); conditions: ATCC 15277, 12 h
Text: as §1, §2

[6] = system: Candida albicans (ATCC 10231); conditions: ATCC 10231, 12 h
Text: as §1, §2

[7] = system: Cryptococcus neoformans (ATCC 34881); conditions: ATCC 34881, 12 h
Text: as §1, §2

[8] = system: Escherichia coli (ATCC 27325); conditions: ATCC 27325, 12 h
Text: as §1, §2

[9] = system: Streptococcus mutans (ATCC 25175); conditions: ATCC 25175, 12 h
Text: as §1, §2

[10] = system: Staphylococcus aureus (ATCC 15752); conditions: ATCC 15752, 12 h
Text: as §1, §2

[11] = system: Pseudomonas putida (ATCC 17426); conditions: ATCC 17426, 12 h
Text: as §1, §2

GIGKFLHSAKKFGKAFVGEIMNS [Magainin, magainin, reference compound]
cell penetration activity [1]: bind with cell membrane

CC[C@H](C)[C@H](NC(=O)CN)C(=O)NCC(=O)N[C@@H](C)C(=O)N[C@H](C(=O)N[C@@H](CC(C)C)C(=O)N[C@@H](CCCCN)C(=O)N[C@H](C(=O)N[C@@H](CC(C)C)C(=O)N[C@H](C(=O)N[C@H](C(=O)NCC(=O)N[C@@H](CC(C)C)C(=O)N1CCC[C@H]1C(=O)N[C@@H](C)C(=O)N[C@@H](CC(C)C)C(=O)N[C@H](C(=O)N[C@@H](CO)C(=O)N[C@@H](Cc1c[nH]c2ccccc12)C(=O)N[C@H](C(=O)N[C@@H](CCCCN)C(=O)N[C@@H](CCCNC(=N)N)C(=O)N[C@@H](CCCCN)C(=O)N[C@@H](CCCNC(=N)N)C(=O)N[C@@H](CCC(N)=O)C(=O)N[C@@H](CCC(N)=O)C(N)=O)[C@@H](C)CC)[C@@H](C)CC)[C@@H](C)O)[C@@H](C)O)C(C)C)C(C)C [Melittin, melittin]
A567 ([2]; absorbance of supernatant diluted 10 times, peptide 200 μg/ml, 1 h at 37° C.): 3.17
hemolysis of hRBC (in words) ([2]; concentration of 200 μg/ml): destroy almost all hRBC

SEQ ID NO: 1 (RVVRQWPIGRVVRRVVRRVVR; antimicrobial peptide)
cell penetration activity [1]: penetrate into E. coli cells

RLLRNWPIGRLLRRLLRRLLR [compound 20]
Minimum Inhibitory Concentration [3]: 2 µg/mL
Minimum Inhibitory Concentration [4]: 2 µg/mL
Minimum Inhibitory Concentration [5]: 2 µg/mL
Minimum Inhibitory Concentration [6]: 1 µg/mL
Minimum Inhibitory Concentration [7]: 1 µg/mL
Minimum Inhibitory Concentration [8]: 1 µg/mL
Minimum Inhibitory Concentration [9]: 2 µg/mL
Minimum Inhibitory Concentration [10]: 1 µg/mL
Minimum Inhibitory Concentration [11]: 1 µg/mL

RLVRNWPIGRLVRRLVRRLVR [compound 24]
Minimum Inhibitory Concentration [3]: 2 µg/mL
Minimum Inhibitory Concentration [4]: 1 µg/mL
Minimum Inhibitory Concentration [5]: 2 µg/mL
Minimum Inhibitory Concentration [6]: 2 µg/mL
Minimum Inhibitory Concentration [7]: 1 µg/mL
Minimum Inhibitory Concentration [8]: 1 µg/mL
Minimum Inhibitory Concentration [9]: 1 µg/mL
Minimum Inhibitory Concentration [10]: 1 µg/mL
Minimum Inhibitory Concentration [11]: 1 µg/mL

KLVKQWPIGKLVKKLVKKLVK [compound 8]
Minimum Inhibitory Concentration [3]: 2 µg/mL
Minimum Inhibitory Concentration [4]: 1 µg/mL
Minimum Inhibitory Concentration [5]: 1 µg/mL
Minimum Inhibitory Concentration [6]: 2 µg/mL
Minimum Inhibitory Concentration [7]: 1 µg/mL
Minimum Inhibitory Concentration [8]: 1 µg/mL
Minimum Inhibitory Concentration [9]: 2 µg/mL
Minimum Inhibitory Concentration [10]: 1 µg/mL
Minimum Inhibitory Concentration [11]: 1 µg/mL

RLVKRLVKRLVKNWPIGRLVK [compound 66]
Minimum Inhibitory Concentration [3]: 2 µg/mL
Minimum Inhibitory Concentration [4]: 1 µg/mL
Minimum Inhibitory Concentration [5]: 1 µg/mL
Minimum Inhibitory Concentration [6]: 1 µg/mL
Minimum Inhibitory Concentration [7]: 1 µg/mL
Minimum Inhibitory Concentration [8]: 2 µg/mL
Minimum Inhibitory Concentration [9]: 2 µg/mL
Minimum Inhibitory Concentration [10]: 1 µg/mL
Minimum Inhibitory Concentration [11]: 1 µg/mL

KLVRKLVRKLVRQWPIGKLVR [compound 50]
Minimum Inhibitory Concentration [3]: 2 µg/mL
Minimum Inhibitory Concentration [4]: 1 µg/mL
Minimum Inhibitory Concentration [5]: 2 µg/mL
Minimum Inhibitory Concentration [6]: 1 µg/mL
Minimum Inhibitory Concentration [7]: 1 µg/mL
Minimum Inhibitory Concentration [8]: 1 µg/mL
Minimum Inhibitory Concentration [9]: 1 µg/mL
Minimum Inhibitory Concentration [10]: 1 µg/mL
Minimum Inhibitory Concentration [11]: 1 µg/mL

RLLRRLLRRLLRQWPIGRLLR [compound 37]
Minimum Inhibitory Concentration [3]: 2 µg/mL
Minimum Inhibitory Concentration [4]: 1 µg/mL
Minimum Inhibitory Concentration [5]: 2 µg/mL
Minimum Inhibitory Concentration [6]: 2 µg/mL
Minimum Inhibitory Concentration [7]: 2 µg/mL
Minimum Inhibitory Concentration [8]: 1 µg/mL
Minimum Inhibitory Concentration [9]: 1 µg/mL
Minimum Inhibitory Concentration [10]: 1 µg/mL
Minimum Inhibitory Concentration [11]: 1 µg/mL

RVLKRVLKRVLKQWPIGRVLK [compound 47]
Minimum Inhibitory Concentration [3]: 2 µg/mL
Minimum Inhibitory Concentration [4]: 1 µg/mL
Minimum Inhibitory Concentration [5]: 1 µg/mL
Minimum Inhibitory Concentration [6]: 1 µg/mL
Minimum Inhibitory Concentration [7]: 1 µg/mL
Minimum Inhibitory Concentration [8]: 1 µg/mL
Minimum Inhibitory Concentration [9]: 2 µg/mL
Minimum Inhibitory Concentration [10]: 1 µg/mL
Minimum Inhibitory Concentration [11]: 1 µg/mL

33 (KLVRNWPIGKLVRKLVRKLVR; antimicrobial peptide) [compound 33]
cell penetration activity [1]: penetrate into E. coli cells

RLLKQWPIGRLLKRLLKRLLK [compound 11]
Minimum Inhibitory Concentration [3]: 2 µg/mL
Minimum Inhibitory Concentration [4]: 1 µg/mL
Minimum Inhibitory Concentration [5]: 2 µg/mL
Minimum Inhibitory Concentration [6]: 1 µg/mL
Minimum Inhibitory Concentration [7]: 1 µg/mL
Minimum Inhibitory Concentration [8]: 1 µg/mL
Minimum Inhibitory Concentration [9]: 2 µg/mL
Minimum Inhibitory Concentration [10]: 1 µg/mL
Minimum Inhibitory Concentration [11]: 1 µg/mL

Source: patent US7348402B2, “Antimicrobial peptide, its analogs and antimicrobial composition comprising them” (priority 2002, dated 2008)
